Measured values as given in patent US9333189B2, “Taxane- and taxoid-protein compositions” (ONCBIOMUNE, INC., priority 2010, dated 2016).
Like-named read-outs stand apart in the source and are kept apart here.

Test system: MCF-7 cells
Test: 3H-thymidine incorporation cell growth assay, MCF-7
Format: cell-based, Human
[1] = metal-transferrin without drug, read-out: IC50 of Drugs bound by a Glutaraldehyde Reaction to the Surface of Transferrin (M): No Drug
[2] = daunorubicin bound to metal-transferrin by glutaraldehyde, read-out: IC50 of Drugs bound by a Glutaraldehyde Reaction to the Surface of Transferrin (M): Daunorubicin

Procedure: Human cancer cell lines were obtained from the American Type Culture Collection (Rockville, Md.); the NCI/Adr-Res cell line came from the National Cancer Institute (Bethesda, Md.). The cancer cell lines were maintained in alpha-MEM supplemented with 10% fetal calf serum, 1 mM glutamine and 0.05 mg/mL gentamicin (Life Technologies, Inc., Frederick, Md.) in 5% CO2 at 37° C. Cells were removed from cell culture flask or plate by trypsin-EDTA (0.05% trypsin and 0.53 mM EDTA) digestion.
Cell growth was measured with a ^3[H]-thymidine incorporation assay. Cancer cells were plated into each well of a 96-well cell culture plate as noted in Table 2 (e.g., MCF-7 cells were plated at 3000 cells/well) and incubated overnight. Culture media was replaced with media containing increasing concentrations of transferrin based drugs, and the cells were incubated with these drugs for 3 days. Then, ^3[H]-thymidine (0.1 uCi/well) was added to each well for the last 16 hours of incubation. The cells were removed from the plate by trypsin-EDTA digestion and harvested onto a glass-fiber filter (Skatron basic96 Harvester, Shatron Inc., Sterling, Va.). The radioactivity incorporated into the cellular DNA was determined by liquid scintillation counting (LS 6500, Beckman Co., Fullerton, Calif.). Cell proliferation was quantitated by ^3[H]-thymidine incorporation and expressed as a percentage of the untreated control. The experiments were repeated a minimum of three times independently.

Substance	IC50 [1] [M]	IC50 [2] [M]
Ga-tf: Human transferrin loaded with gallium, no drug	3.4e-06	
Ga-tf Daunorubicin: Daunorubicin bound by a glutaraldehyde reaction to the surface of gallium-transferrin		3.6e-07
Fe-tf Daunorubicin: Daunorubicin bound by a glutaraldehyde reaction to the surface of iron-transferrin		2.2e-07
In-tf: Indium-transferrin, no drug	2.7e-06	
In-tf Daunorubicin: Daunorubicin bound by a glutaraldehyde reaction to the surface of indium-transferrin		2.7e-08
